In experiment [1] the target is Opioid receptors; mu & delta (Rattus norvegicus) (UniProt P33533+P33535). The experiment is described as follows: Selectivity for delta opioid receptor over mu opioid receptor. In kind it is protein assay.
Experiment [2] deals with Delta-type opioid receptor (Rattus norvegicus, UniProt P33533). Nature of the experiment: Displacement of [3H]DPDPE from delta opioid receptor in rat brain. Format: tissue-based.
Experiment [3] concerns the target Mu-type opioid receptor (Rattus norvegicus, UniProt P33535). The experiment is described as follows: Displacement of [3H]DAMGO from mu opioid receptor in rat brain. In kind it is tissue-based. In general terms: Loss of bound radioactivity is the signal in a displacement assay; it reports binding, not function.
For experiment [4], the target named is Delta-type opioid receptor (Mus musculus, UniProt P32300). Nature of the experiment: Activity against delta opioid receptor by stimulation of [35S]GTP-gamma-S binding in CHO-hgamma cells. Format: functional, cell-based. In general terms: GTPγS resists hydrolysis and so accumulates on activated G proteins.
Chain of Delta-type opioid receptor (Mus musculus, UniProt P32300) (P32300 whole entry): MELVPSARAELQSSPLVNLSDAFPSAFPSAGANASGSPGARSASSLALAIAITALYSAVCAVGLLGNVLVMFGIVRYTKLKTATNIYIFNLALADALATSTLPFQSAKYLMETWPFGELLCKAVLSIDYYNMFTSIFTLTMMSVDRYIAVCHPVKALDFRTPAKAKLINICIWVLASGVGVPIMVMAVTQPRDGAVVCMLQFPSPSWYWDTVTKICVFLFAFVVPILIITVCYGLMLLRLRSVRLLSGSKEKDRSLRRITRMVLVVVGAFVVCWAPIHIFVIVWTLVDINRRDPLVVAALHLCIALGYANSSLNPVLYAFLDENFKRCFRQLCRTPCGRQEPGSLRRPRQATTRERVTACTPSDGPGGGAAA
In experiment [5] the target is Mu-type opioid receptor (Cavia porcellus, UniProt P97266). The experiment is described as follows: Activity against mu opioid receptor by stimulation of [35S]GTP-gamma-S binding in CHO-hgamma cells. In kind it is functional, cell-based.
Chain of Mu-type opioid receptor (Cavia porcellus, UniProt P97266) (P97266 whole entry): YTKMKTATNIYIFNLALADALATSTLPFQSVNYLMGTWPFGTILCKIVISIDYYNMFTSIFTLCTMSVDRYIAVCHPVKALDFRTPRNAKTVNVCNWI

Experimental findings from ChEMBL document CHEMBL1146992, “Identification of potent phenyl imidazoles as opioid receptor agonists” (Bioorg Med Chem Lett, 2006) are described below.

The structures appear in SMILES notation.

Chain of Mu-type opioid receptor (Rattus norvegicus, UniProt P33535) (P33535 whole entry): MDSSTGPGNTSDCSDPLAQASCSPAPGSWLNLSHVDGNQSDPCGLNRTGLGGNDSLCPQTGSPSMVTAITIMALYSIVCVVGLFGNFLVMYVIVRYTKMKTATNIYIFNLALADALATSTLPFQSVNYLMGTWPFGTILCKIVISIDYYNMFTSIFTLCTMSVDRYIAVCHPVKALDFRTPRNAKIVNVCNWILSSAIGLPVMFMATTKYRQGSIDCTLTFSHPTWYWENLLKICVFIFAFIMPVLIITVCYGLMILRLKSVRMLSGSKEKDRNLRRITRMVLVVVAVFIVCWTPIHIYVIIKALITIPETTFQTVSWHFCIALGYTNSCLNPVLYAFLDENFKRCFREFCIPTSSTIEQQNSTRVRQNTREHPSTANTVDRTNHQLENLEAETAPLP
Chain of Opioid receptors; mu & delta (Rattus norvegicus) (P33533 whole entry, looked up): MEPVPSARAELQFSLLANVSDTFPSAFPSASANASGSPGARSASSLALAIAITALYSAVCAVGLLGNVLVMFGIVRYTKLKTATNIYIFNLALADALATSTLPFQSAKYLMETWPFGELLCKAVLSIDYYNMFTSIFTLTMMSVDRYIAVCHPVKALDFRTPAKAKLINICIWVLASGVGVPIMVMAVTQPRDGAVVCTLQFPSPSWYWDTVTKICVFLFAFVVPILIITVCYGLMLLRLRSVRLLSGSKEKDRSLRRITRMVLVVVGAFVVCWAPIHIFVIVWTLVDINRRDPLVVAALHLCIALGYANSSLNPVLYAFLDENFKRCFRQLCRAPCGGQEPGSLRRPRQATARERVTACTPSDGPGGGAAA
Chain of Opioid receptors; mu & delta (Rattus norvegicus) (P33535 whole entry, looked up): as the sequence (P33535 whole entry) above
Chain of Delta-type opioid receptor (Rattus norvegicus, UniProt P33533) (P33533 whole entry): as the sequence (P33533 whole entry, looked up) above

`Cc1[nH]c([C@@H]2Cc3ccccc3CN2C(=O)[C@@H](N)Cc2ccc(O)cc2)nc1-c1ccccc1`: in experiment [1], the Ratio Ki was 75.
On to `N[C@@H](Cc1ccc(O)cc1)C(=O)N1CCCC[C@H]1c1nc(-c2ccccc2)c[nH]1`, for which the results for the Ki (in experiment [2]; on Mu-type opioid receptor [3]) were 198 nM and 3.8 nM, respectively. Also, the Ratio Ki in experiment [1] was determined as 0.02.
`Cc1[nH]c([C@@H]2Cc3ccccc3CN2C(=O)[C@@H](N)Cc2ccc(N)cc2)nc1-c1ccccc1`: the Ratio Ki in experiment [1] is 9.
For the compound `CC(=O)c1ccc(C[C@H](N)C(=O)N2Cc3ccccc3C[C@H]2c2nc(-c3ccccc3)c[nH]2)cc1`, the affinity in experiment [2], expressed as Ki, was 30 nM. Further, in experiment [1], the Ratio Ki came out at 14.
Turning to `N[C@@H](Cc1ccc(S(N)(=O)=O)cc1)C(=O)N1Cc2ccccc2C[C@H]1c1nc(-c2ccccc2)c[nH]1`, the Ratio Ki in experiment [1] stood at 3.4.
Regarding `N[C@@H](Cc1ccccc1)C(=O)N1Cc2ccccc2C[C@H]1c1nc(-c2ccccc2)c[nH]1`, the Ki (as a rule, the dissociation constant of the complex between target and ligand, obtained from inhibition or displacement) in experiment [2] was 266 nM; on Mu-type opioid receptor [3], 443 nM. Besides, in experiment [1], the Ratio Ki is 1.7.
Take `NC(=O)c1ccc(C[C@H](N)C(=O)N2Cc3ccccc3C[C@H]2c2nc(-c3ccccc3)c[nH]2)cc1`: the results for the inhibition constant (Ki) (in experiment [2]; at Mu-type opioid receptor [3]) were 1.3 nM and 23 nM, respectively. The Ratio Ki in experiment [1] was 18.4. Moreover, the 50% effective concentration (EC50) – broadly, the concentration that produces a half-maximal response – was found to be 3 nM in experiment [4] and 155 nM at Mu-type opioid receptor [5].
As for `Cc1[nH]c([C@@H]2Cc3ccccc3CN2C(=O)[C@@H](N)Cc2ccc(F)cc2)nc1-c1ccccc1`, in experiment [1], the Ratio Ki amounted to 19.
Consider `COc1ccc(C[C@H](N)C(=O)N2Cc3ccccc3C[C@H]2c2nc(C)c(-c3ccccc3)[nH]2)cc1`, for which, in experiment [1], the Ratio Ki was found to be 6.4.
For the compound `Cc1cc(C(N)=O)cc(C)c1C[C@H](N)C(=O)N1CCCC[C@H]1c1nc(-c2ccccc2)c[nH]1`, the Ki was 14 nM in experiment [2] and 0.13 nM at Mu-type opioid receptor [3]. For the same compound, the 50% effective concentration (EC50) worked out at 135 nM in experiment [4] and 9 nM at Mu-type opioid receptor [5].
Take `CC(=O)Nc1ccc(C[C@H](N)C(=O)N2Cc3ccccc3C[C@H]2c2nc(C)c(-c3ccccc3)[nH]2)cc1`: the Ratio Ki in experiment [1] was 6.
Consider `N[C@@H](Cc1ccc(C(=O)O)cc1)C(=O)N1Cc2ccccc2C[C@H]1c1nc(-c2ccccc2)c[nH]1`, for which the Ki in experiment [2] worked out at 5200 nM; at Mu-type opioid receptor [3], 5800 nM. In addition, the Ratio Ki in experiment [1] stood at 1.1.
Turning to `Cc1cc(O)cc(C)c1C[C@H](N)C(=O)N1CCCC[C@H]1c1nc(-c2ccccc2)c[nH]1`, the figures for the Ki (in experiment [2]; on Mu-type opioid receptor [3]) were 1.9 nM and 0.05 nM, respectively. Also, in experiment [1], the Ratio Ki was 0.03. The EC50 came out at 37 nM in experiment [4] and 2 nM at Mu-type opioid receptor [5].
As for `Cc1[nH]c([C@@H]2Cc3ccccc3CN2C(=O)[C@@H](N)Cc2ccccc2)nc1-c1ccccc1`, the results for the Ki (in experiment [2]; on Mu-type opioid receptor [3]) were 236 nM and 1830 nM, respectively. Moreover, in experiment [1], the Ratio Ki was 8.
Turning to `Cc1cc(C(N)=O)cc(C)c1C[C@H](N)C(=O)N1Cc2ccccc2C[C@H]1c1nc(-c2ccccc2)c[nH]1`, the Ki on Mu-type opioid receptor [3] worked out at 1.4 nM. Besides, the EC50 stood at 22 nM in experiment [4] and 161 nM at Mu-type opioid receptor [5].
As to `Cc1cc(O)cc(C)c1C[C@H](N)C(=O)N1Cc2ccccc2C[C@H]1c1nc(C)c(-c2ccccc2)[nH]1`, the Ratio Ki in experiment [1] amounted to 3.2.
With `CS(=O)(=O)Nc1ccc(C[C@H](N)C(=O)N2Cc3ccccc3C[C@H]2c2nc(-c3ccccc3)c[nH]2)cc1`, the inhibitory constant (Ki) is 342 nM in experiment [2] and 356 nM on Mu-type opioid receptor [3]. Also, the Ratio Ki in experiment [1] turned out to be 1.
The like results for `N[C@@H](Cc1ccccc1)C(=O)N1CCCC[C@H]1c1nc(-c2ccccc2)c[nH]1` were, in that order, 1130 nM, 18 nM and 0.02.
On to `Cc1cc(O)cc(C)c1C[C@H](N)C(=O)N1Cc2ccccc2C[C@H]1c1nc(-c2ccccc2)c[nH]1`, for which the Ki in experiment [2] was 0.1 nM; on Mu-type opioid receptor [3] it was 0.3 nM. Further, the Ratio Ki in experiment [1] was found to be 3.2. Besides, the values for the EC50 (in experiment [4]; at Mu-type opioid receptor [5]) were 0.9 nM and 27 nM, respectively.
As to `N[C@@H](Cc1ccc(Cl)cc1)C(=O)N1Cc2ccccc2C[C@H]1c1nc(-c2ccccc2)c[nH]1`, the Ratio Ki in experiment [1] came out at 4.6.
On to `Cc1cc(O)cc(C)c1C[C@H](N)C(=O)N1Cc2ccccc2C[C@H]1c1nc(-c2ccccc2)c(C)[nH]1`, for which the values for the Ki (in experiment [2]; at Mu-type opioid receptor [3]) were 0.1 nM and 0.3 nM, respectively.
On Mu-type opioid receptor [3], `NC(=O)c1ccc(C[C@H](N)C(=O)N2CCCC[C@H]2c2nc(-c3ccccc3)c[nH]2)cc1` came in with a Ki of 1.2 nM. Also, in experiment [1], the Ratio Ki is 0.02. Moreover, the figures for the EC50 (in experiment [4]; on Mu-type opioid receptor [5]) were 730 nM and 100 nM, respectively.
`Cc1[nH]c([C@@H]2CCCCN2C(=O)[C@@H](N)Cc2ccc(O)cc2)nc1-c1ccccc1`: the Ratio Ki in experiment [1] is 0.1. Further, the EC50 in experiment [4] was determined as 500 nM; on Mu-type opioid receptor [5] it was 142 nM.
`Cc1[nH]c([C@@H]2Cc3ccccc3CN2C(=O)[C@@H](N)Cc2ccc(C#N)cc2)nc1-c1ccccc1`: the inhibition constant (Ki) in experiment [2] worked out at 752 nM; on Mu-type opioid receptor [3] it was 1340 nM. Besides, the Ratio Ki in experiment [1] is 1.8.
As for `N[C@@H](Cc1ccc(CO)cc1)C(=O)N1Cc2ccccc2C[C@H]1c1nc(-c2ccccc2)c[nH]1`, the results for the inhibition constant (Ki) (in experiment [2]; on Mu-type opioid receptor [3]) were 466 nM and 912 nM, respectively. In addition, the Ratio Ki in experiment [1] came to 2.
As to `N[C@@H](Cc1ccc(O)cc1)C(=O)N1Cc2ccccc2C[C@H]1c1nc(-c2ccccc2)c[nH]1`, in experiment [1], the Ratio Ki was 63. In experiment [4], this compound displayed an EC50 of 19 nM.
